Measurements from patent US20260027116A1, “Methods of Treating Chronic Graft-Versus-Host Disease Following Allogeneic Hematopoietic Stem Cell Transplantation” (Kadmon Corporation, LLC, priority 2022, published 2026).

How the values were obtained:
lung function = assay: Example 1: percent predicted HGB corrected DLco change from baseline; assay type: in vivo, human; conditions: mean (SD)
Text: Change From Baseline in Percent Predicted Hemoglobin (HGB) Corrected Diffusing Capacity of Lung for Carbon Monoxide (DLco) at Each Specified Time Points. DLco is a measurement of the ability of the lungs to transfer gases from the air to the blood. Change from baseline in diffusing capacity of the lung for carbon monoxide (percent predicted hemoglobin level corrected) was reported for this measure. Baseline value was defined as valid and last non-missing value obtained within 28 days prior to participant receiving first study medication. EOT visit was performed within 3 days after the participant's last dose of study drug. […] Analysis was performed on mITT population. Here, ‘number analyzed’=participants with available data for each specified category. Here, ‘O’ in the number analyzed field signifies that none of the participants were available for the analysis at the specified time points.

[1] = pharmacokinetics in chronic GVHD patients; assay type: in vivo, human; conditions: 200 and 400 mg

Structure (SMILES): CC(C)NC(=O)COc1cccc(-c2nc(Nc3ccc4[nH]ncc4c3)c3ccccc3n2)c1 [Belumosudil, 2-{3-[4-(1H-indazol-5-ylamino)-2-quinazolinyl]phenoxy}-N-(propan-2-yl) acetamide]
- Change From Baseline in Percent Predicted Hemoglobin (HGB) Corrected Diffusing Capacity of Lung for Carbon Monoxide (DLco) (lung function; Cohort 2: 200 mg BID, Cycle 16, Day 1): −6.618 (15.443) Percent Predicted HGB Corrected DLco
- Change From Baseline in Percent Predicted Hemoglobin (HGB) Corrected Diffusing Capacity of Lung for Carbon Monoxide (DLco) (lung function; Cohort 2: 200 mg BID, Cycle 17, Day 1): 8.458 (6.229) Percent Predicted HGB Corrected DLco
- Change From Baseline in Percent Predicted Hemoglobin (HGB) Corrected Diffusing Capacity of Lung for Carbon Monoxide (DLco) (lung function; Cohort 2: 200 mg BID, Cycle 18, Day 1): 15.543 (11.753) Percent Predicted HGB Corrected DLco
- Change From Baseline in Percent Predicted Hemoglobin (HGB) Corrected Diffusing Capacity of Lung for Carbon Monoxide (DLco) (lung function; Cohort 2: 200 mg BID, Cycle 19, Day 1): 1.824 (8.539) Percent Predicted HGB Corrected DLco
- Change From Baseline in Percent Predicted Hemoglobin (HGB) Corrected Diffusing Capacity of Lung for Carbon Monoxide (DLco) (lung function; Cohort 2: 200 mg BID, Cycle 20, Day 1): −14.692 (—) Percent Predicted HGB Corrected DLco
- Change From Baseline in Percent Predicted Hemoglobin (HGB) Corrected Diffusing Capacity of Lung for Carbon Monoxide (DLco) (lung function; Cohort 2: 200 mg BID, Cycle 21, Day 1): −10.661 (—) Percent Predicted HGB Corrected DLco
- Change From Baseline in Percent Predicted Hemoglobin (HGB) Corrected Diffusing Capacity of Lung for Carbon Monoxide (DLco) (lung function; Cohort 2: 200 mg BID, Cycle 22, Day 1): 3.347 (3.560) Percent Predicted HGB Corrected DLco
- Change From Baseline in Percent Predicted Hemoglobin (HGB) Corrected Diffusing Capacity of Lung for Carbon Monoxide (DLco) (lung function; Cohort 2: 200 mg BID, Cycle 23, Day 1): −15.184 (20.181) Percent Predicted HGB Corrected DLco
- Change From Baseline in Percent Predicted Hemoglobin (HGB) Corrected Diffusing Capacity of Lung for Carbon Monoxide (DLco) (lung function; Cohort 2: 200 mg BID, Cycle 24, Day 1): −18.095 (—) Percent Predicted HGB Corrected DLco
- Change From Baseline in Percent Predicted Hemoglobin (HGB) Corrected Diffusing Capacity of Lung for Carbon Monoxide (DLco) (lung function; Cohort 2: 200 mg BID, Cycle 25, Day 1): 6.289 (2.469) Percent Predicted HGB Corrected DLco
- Change From Baseline in Percent Predicted Hemoglobin (HGB) Corrected Diffusing Capacity of Lung for Carbon Monoxide (DLco) (lung function; Cohort 2: 200 mg BID, Cycle 27, Day 1): −9.914 (15.387) Percent Predicted HGB Corrected DLco
- Change From Baseline in Percent Predicted Hemoglobin (HGB) Corrected Diffusing Capacity of Lung for Carbon Monoxide (DLco) (lung function; Cohort 2: 200 mg BID, Cycle 29, Day 1): −18.814 (24.960) Percent Predicted HGB Corrected DLco
- Change From Baseline in Percent Predicted Hemoglobin (HGB) Corrected Diffusing Capacity of Lung for Carbon Monoxide (DLco) (lung function; Cohort 2: 200 mg BID, Cycle 31, Day 1): −0.800 (17.528) Percent Predicted HGB Corrected DLco
- Change From Baseline in Percent Predicted Hemoglobin (HGB) Corrected Diffusing Capacity of Lung for Carbon Monoxide (DLco) (lung function; Cohort 2: 200 mg BID, Cycle 33, Day 1): −5.962 (10.550) Percent Predicted HGB Corrected DLco
- Change From Baseline in Percent Predicted Hemoglobin (HGB) Corrected Diffusing Capacity of Lung for Carbon Monoxide (DLco) (lung function; Cohort 2: 200 mg BID, Cycle 35, Day 1): −0.426 (6.677) Percent Predicted HGB Corrected DLco
- Change From Baseline in Percent Predicted Hemoglobin (HGB) Corrected Diffusing Capacity of Lung for Carbon Monoxide (DLco) (lung function; Cohort 2: 200 mg BID, Cycle 37, Day 1): −19.228 (—) Percent Predicted HGB Corrected DLco
- Change From Baseline in Percent Predicted Hemoglobin (HGB) Corrected Diffusing Capacity of Lung for Carbon Monoxide (DLco) (lung function; Cohort 2: 200 mg BID, Cycle 39, Day 1): −6.813 (12.810) Percent Predicted HGB Corrected DLco
- Change From Baseline in Percent Predicted Hemoglobin (HGB) Corrected Diffusing Capacity of Lung for Carbon Monoxide (DLco) (lung function; Cohort 2: 200 mg BID, Cycle 43, Day 1): 8.775 (—) Percent Predicted HGB Corrected DLco
- Change From Baseline in Percent Predicted Hemoglobin (HGB) Corrected Diffusing Capacity of Lung for Carbon Monoxide (DLco) (lung function; Cohort 2: 200 mg BID, EOT): 0.985 (5.919) Percent Predicted HGB Corrected DLco
- Change From Baseline in Percent Predicted Hemoglobin (HGB) Corrected Diffusing Capacity of Lung for Carbon Monoxide (DLco) (lung function; Cohort 3: 400 mg QD, Cycle 2, Day 1): −5.243 (9.830) Percent Predicted HGB Corrected DLco
- Change From Baseline in Percent Predicted Hemoglobin (HGB) Corrected Diffusing Capacity of Lung for Carbon Monoxide (DLco) (lung function; Cohort 3: 400 mg QD, Cycle 3, Day 1): −3.928 (9.492) Percent Predicted HGB Corrected DLco
- Change From Baseline in Percent Predicted Hemoglobin (HGB) Corrected Diffusing Capacity of Lung for Carbon Monoxide (DLco) (lung function; Cohort 3: 400 mg QD, Cycle 4, Day 1): 0.278 (9.683) Percent Predicted HGB Corrected DLco
- Change From Baseline in Percent Predicted Hemoglobin (HGB) Corrected Diffusing Capacity of Lung for Carbon Monoxide (DLco) (lung function; Cohort 3: 400 mg QD, Cycle 5, Day 1): −4.111 (9.138) Percent Predicted HGB Corrected DLco
- Change From Baseline in Percent Predicted Hemoglobin (HGB) Corrected Diffusing Capacity of Lung for Carbon Monoxide (DLco) (lung function; Cohort 3: 400 mg QD, Cycle 6, Day 1): −3.143 (10.385) Percent Predicted HGB Corrected DLco
- Change From Baseline in Percent Predicted Hemoglobin (HGB) Corrected Diffusing Capacity of Lung for Carbon Monoxide (DLco) (lung function; Cohort 3: 400 mg QD, Cycle 7, Day 1): −4.275 (11.464) Percent Predicted HGB Corrected DLco
- Change From Baseline in Percent Predicted Hemoglobin (HGB) Corrected Diffusing Capacity of Lung for Carbon Monoxide (DLco) (lung function; Cohort 3: 400 mg QD, Cycle 8, Day 1): −3.787 (11.983) Percent Predicted HGB Corrected DLco
- Change From Baseline in Percent Predicted Hemoglobin (HGB) Corrected Diffusing Capacity of Lung for Carbon Monoxide (DLco) (lung function; Cohort 3: 400 mg QD, Cycle 9, Day 1): −2.540 (11.897) Percent Predicted HGB Corrected DLco
- Change From Baseline in Percent Predicted Hemoglobin (HGB) Corrected Diffusing Capacity of Lung for Carbon Monoxide (DLco) (lung function; Cohort 3: 400 mg QD, Cycle 10, Day 1): 1.328 (8.887) Percent Predicted HGB Corrected DLco
- Change From Baseline in Percent Predicted Hemoglobin (HGB) Corrected Diffusing Capacity of Lung for Carbon Monoxide (DLco) (lung function; Cohort 3: 400 mg QD, Cycle 11, Day 1): −2.720 (10.920) Percent Predicted HGB Corrected DLco
- Change From Baseline in Percent Predicted Hemoglobin (HGB) Corrected Diffusing Capacity of Lung for Carbon Monoxide (DLco) (lung function; Cohort 3: 400 mg QD, Cycle 12, Day 1): −1.378 (6.364) Percent Predicted HGB Corrected DLco
- Change From Baseline in Percent Predicted Hemoglobin (HGB) Corrected Diffusing Capacity of Lung for Carbon Monoxide (DLco) (lung function; Cohort 3: 400 mg QD, Cycle 13, Day 1): 2.091 (13.290) Percent Predicted HGB Corrected DLco
- Change From Baseline in Percent Predicted Hemoglobin (HGB) Corrected Diffusing Capacity of Lung for Carbon Monoxide (DLco) (lung function; Cohort 3: 400 mg QD, Cycle 14, Day 1): 0.309 (11.651) Percent Predicted HGB Corrected DLco
- Change From Baseline in Percent Predicted Hemoglobin (HGB) Corrected Diffusing Capacity of Lung for Carbon Monoxide (DLco) (lung function; Cohort 3: 400 mg QD, Cycle 15, Day 1): −5.309 (11.514) Percent Predicted HGB Corrected DLco
- Change From Baseline in Percent Predicted Hemoglobin (HGB) Corrected Diffusing Capacity of Lung for Carbon Monoxide (DLco) (lung function; Cohort 3: 400 mg QD, Cycle 16, Day 1): −6.840 (15.053) Percent Predicted HGB Corrected DLco
- Change From Baseline in Percent Predicted Hemoglobin (HGB) Corrected Diffusing Capacity of Lung for Carbon Monoxide (DLco) (lung function; Cohort 3: 400 mg QD, Cycle 17, Day 1): −10.865 (13.346) Percent Predicted HGB Corrected DLco
- Change From Baseline in Percent Predicted Hemoglobin (HGB) Corrected Diffusing Capacity of Lung for Carbon Monoxide (DLco) (lung function; Cohort 3: 400 mg QD, Cycle 18, Day 1): −3.174 (3.106) Percent Predicted HGB Corrected DLco
- Change From Baseline in Percent Predicted Hemoglobin (HGB) Corrected Diffusing Capacity of Lung for Carbon Monoxide (DLco) (lung function; Cohort 3: 400 mg QD, Cycle 19, Day 1): −2.020 (2.436) Percent Predicted HGB Corrected DLco
- Change From Baseline in Percent Predicted Hemoglobin (HGB) Corrected Diffusing Capacity of Lung for Carbon Monoxide (DLco) (lung function; Cohort 3: 400 mg QD, Cycle 20, Day 1): −13.517 (5.936) Percent Predicted HGB Corrected DLco
- Change From Baseline in Percent Predicted Hemoglobin (HGB) Corrected Diffusing Capacity of Lung for Carbon Monoxide (DLco) (lung function; Cohort 3: 400 mg QD, Cycle 21, Day 1): −12.354 (12.800) Percent Predicted HGB Corrected DLco
- Change From Baseline in Percent Predicted Hemoglobin (HGB) Corrected Diffusing Capacity of Lung for Carbon Monoxide (DLco) (lung function; Cohort 3: 400 mg QD, Cycle 22, Day 1): −17.222 (16.947) Percent Predicted HGB Corrected DLco
- Change From Baseline in Percent Predicted Hemoglobin (HGB) Corrected Diffusing Capacity of Lung for Carbon Monoxide (DLco) (lung function; Cohort 3: 400 mg QD, Cycle 23, Day 1): −2.219 (10.614) Percent Predicted HGB Corrected DLco
- Change From Baseline in Percent Predicted Hemoglobin (HGB) Corrected Diffusing Capacity of Lung for Carbon Monoxide (DLco) (lung function; Cohort 3: 400 mg QD, Cycle 24, Day 1): −11.430 (—) Percent Predicted HGB Corrected DLco
- Change From Baseline in Percent Predicted Hemoglobin (HGB) Corrected Diffusing Capacity of Lung for Carbon Monoxide (DLco) (lung function; Cohort 3: 400 mg QD, Cycle 25, Day 1): −13.392 (—) Percent Predicted HGB Corrected DLco
- Change From Baseline in Percent Predicted Hemoglobin (HGB) Corrected Diffusing Capacity of Lung for Carbon Monoxide (DLco) (lung function; Cohort 3: 400 mg QD, Cycle 27, Day 1): −11.154 (—) Percent Predicted HGB Corrected DLco
- Change From Baseline in Percent Predicted Hemoglobin (HGB) Corrected Diffusing Capacity of Lung for Carbon Monoxide (DLco) (lung function; Cohort 3: 400 mg QD, Cycle 29, Day 1): 8.613 (—) Percent Predicted HGB Corrected DLco
- Change From Baseline in Percent Predicted Hemoglobin (HGB) Corrected Diffusing Capacity of Lung for Carbon Monoxide (DLco) (lung function; Cohort 3: 400 mg QD, Cycle 31, Day 1): 10.833 (—) Percent Predicted HGB Corrected DLco
- Change From Baseline in Percent Predicted Hemoglobin (HGB) Corrected Diffusing Capacity of Lung for Carbon Monoxide (DLco) (lung function; Cohort 3: 400 mg QD, Cycle 35, Day 1): 5.088 (—) Percent Predicted HGB Corrected DLco
- Change From Baseline in Percent Predicted Hemoglobin (HGB) Corrected Diffusing Capacity of Lung for Carbon Monoxide (DLco) (lung function; Cohort 3: 400 mg QD, Cycle 36, Day 1): 10.372 (—) Percent Predicted HGB Corrected DLco
- Change From Baseline in Percent Predicted Hemoglobin (HGB) Corrected Diffusing Capacity of Lung for Carbon Monoxide (DLco) (lung function; Cohort 3: 400 mg QD, Cycle 39, Day 1): 5.902 (—) Percent Predicted HGB Corrected DLco
- Change From Baseline in Percent Predicted Hemoglobin (HGB) Corrected Diffusing Capacity of Lung for Carbon Monoxide (DLco) (lung function; Cohort 3: 400 mg QD, EOT): −10.371 (14.208) Percent Predicted HGB Corrected DLco
- dose dependence of Cmax and AUC [1]: approximately proportional
